pIC50: −log10 of the molar value.
How the values were obtained:
human VEGFR2 kinase = molecular target: T1, human VEGFR2 kinase (Homo sapiens, UniProt P35968); assay: VEGFR2 kinase assay (HTRF); assay type: biochemical; details: Table 1
T1 construct: GST-fusion protein encoding the catalytic carboxyl-terminus of human VEGFR kinase 1, 2, or 3; made in house; host or cells: baculovirus expression system
Method: Vascular endothelial growth factor receptor kinase assays were carried out in a homogenous time-resolved fluorescence (HTRF) format in 384-well microtitre plates using a purified, baculovirus-expressed GST-fusion protein encoding the catalytic carboxyl-terminus of human VEGFR kinase 1, 2, or 3. Reactions were initiated by the addition of 10 μl of activated VEGFR kinase (1 nM, 0.1 M HEPES pH 7.5, 0.1 mg ml^−1 BSA, and 0.30 mM DTT) to 10 μl of substrate (360 nM biotin-aminohexyl-EEEEYFELVAKKKK-NH2 peptide, 75 μM ATP, 10 mM MgCl2) and 1 μl of small molecule inhibitor at various concentrations. Plates were incubated at room temperature for 60 min, and the reaction was stopped by the addition of 20 μl 100 mM EDTA. Homogenous time-resolved fluorescence reagents (20 μl 15 nM streptavidin-linked allophycocyanin, 1 nM europium-labelled anti-phosphotyrosine antibody in 0.1 M HEPES, pH 7.5, 0.1 mg ml^−1 BSA) were added and plates were incubated for a minimum of 10 min. The fluorescence at 665 nm was measured with a Victor plate reader (Wallac, Shelton, CT, USA) using a time delay of 50 μs. […] Data were fitted with a curve described by: y=((Vmax × x)/(K+x)+Y2), where Vmax is the upper asymptote, Y2 is the Y intercept, and K is the IC50.

[1] = test system: HUVEC grown in presence of VEGF; assay: VEGF-induced HUVEC proliferation (BrdU incorporation); assay type: cell-based; details: Homo sapiens, VEGF 10 ng ml^−1, 72 h
Method: (§1) Effect of kinase inhibitors on cell proliferation was measured using BrdU incorporation method using commercially available kits (Roche Diagnostics, Indianapolis, IN, USA). Briefly, HUVEC were seeded in a medium containing 5% FBS in type 1 Collagen-coated 96-well plates and incubated overnight at 37°C, 5% CO2. The medium was aspirated from the cells, and various concentrations of kinase inhibitors in serum-free medium were added to each well. After 30 min, VEGF (10 ng ml^−1) or bFGF (0.3 ng ml^−1) was added to the wells. Cells were incubated for an additional 72 h and BrdU (10 μM) was added during the last 18–24 h of incubation. Data were fitted with a curve described by the equation, y=Vmax × (1−(x/(K+x))), where K is equal to the IC50.

[2] = test system: HUVEC grown in presence of bFGF; assay: bFGF-induced HUVEC proliferation (BrdU incorporation); assay type: cell-based; details: Homo sapiens, bFGF 0.3 ng ml^−1, 72 h
Method: as §1

T1 sequence (P35968 834-1162 limits assumed): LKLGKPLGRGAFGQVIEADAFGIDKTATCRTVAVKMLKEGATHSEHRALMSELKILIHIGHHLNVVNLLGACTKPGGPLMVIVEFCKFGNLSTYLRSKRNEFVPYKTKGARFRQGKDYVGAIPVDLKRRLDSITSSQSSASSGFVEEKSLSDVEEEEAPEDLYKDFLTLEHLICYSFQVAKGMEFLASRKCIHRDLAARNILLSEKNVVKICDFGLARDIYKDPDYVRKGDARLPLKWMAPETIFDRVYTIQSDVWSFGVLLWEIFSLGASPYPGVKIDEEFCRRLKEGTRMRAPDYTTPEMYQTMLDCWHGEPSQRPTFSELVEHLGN

pIC50 (human VEGFR2 kinase): 8.96
SMILES: Cc1n[nH]c2cc(N(C)c3ccnc(Nc4cc(S(N)(=O)=O)ccc4Cl)n3)ccc12 [GW695612, 4-chloro-3-({4-[methyl(3-methyl-1H-indazol-6-yl)amino]pyrimidin-2-yl}amino)benzenesulphonamide]
pIC50 [1]: 6.59
pIC50 [2]: 5.42
